Experimental findings from patent publication US5372944A, “Method for conversion of halogenated hydrocarbons to halohydrins” (The Dow Chemical Company, priority 1993, dated 1994) are described below.

Test [1] addresses partially purified TDTM-003 dehalogenase (Rhodococcus sp. TDTM0003, UniProt P59336). Briefly: Substrate profile of partially purified TDTM-003 dehalogenase. The test is classed as biochemical, Rhodococcus species TDTM-003. The note with it: corrected for non-enzymatic hydrolysis. The protocol: (§1) Hydrolytic dehalogenase enzyme activity was evaluated by adding an appropriate amount of cell free extract or enzyme preparation to 5.0 mL of 100 mM glycine buffer, pH=9.0 in a 7 mL glass vial. The halogenated substrate (5.0 μl) and a small stir bar were added, and the vial capped. Reaction was initiated by transfer to a 30° C. water bath equipped with a magnetic stirrer. Periodically 1.0 mL samples were removed and assayed for free halide. Rates were determined after correcting for non-enzymatic hydrolysis with an appropriate blank. A standard curve was prepared using sodium chloride.
Frozen pellets from 2 liters of culture were thawed into 150 mL of 10 mM Tris sulfate buffer, pH=7.5 containing 1 mM disodium EDTA. This buffer was used throughout the entire purification. The suspension was sonicated for approximately 1 hour with ice cooling using a Microson Ultrasonic Cell Disrupter and centrifuged at 10,000 rpm for 15 minutes to remove cell debris. Supernatant was removed and the sonication/centrifugation repeated with fresh buffer to increase enzyme yield. Overall sonication efficiency was monitored by absorbence at 280 nm. Cell free extracts were combined and brought slowly to 30 percent saturation with solid ammonium sulfate. The suspension was centrifuged at 10,000 rpm for 30 minutes and the pellet discarded. The supernatant was brought to 70 percent saturation with solid ammonium sulfate and centrifugation repeated. Supernatant was discarded and the pellet taken up in a small volume of buffer and dialyzed overnight against 1 liter of the same. The preparation was applied to a 1.5×15cm column of DEAE-Sephadex equilibrated with the same buffer elution carried out with a 1 liter gradient from 0 to 400 mM ammonium sulfate. Fractions of about 7-8 mLs were collected. The active fractions were pooled and brought to 90 percent saturation with ammonium sulfate. The pellet was taken up in a minimal amount of buffer, ultrafiltered to 2.5 mL using 10,000 MWCO Novacell Ultrafiltration cell, and applied to a 1.5×90 cm Sephadex G-100 column. Elution was by gravity at 90 cm and fractions of 7-8 mLs were collected. Active fractions were poled, brought to 30 percent saturation with ammonium sulfate, and applied to a 10 ml column of Butyl-agarose equilibrated in the same. Elution was performed with a 500 mL gradient from 30 percent-0 percent ammonium sulfate. Active fractions were pooled, dialyzed and used for substrate selectivity studies.
To evaluate the substrate selectivity of haloalkane dehalogenase from isolated Rhodococcus species, an enzyme preparation from the strain designated TDTM-003 was purified by the procedure described under General Experimental. This preparation provided a dehalogenase which was approximately 50 percent pure as estimated by SDS-PAGE and was free of interfering halohydrin dehalogenase activity.
The activity of this partially purified TDTM-003 dehalogenase preparation was evaluated against various chlorinated and brominated substrates. Each enzymatic rate was corrected for non-enzymatic hydroloysis.

For test [2], the system named is dehalogenase in cell free extracts of Rhodococcus Rhodochrous, TDTM-003. The test can be described thus: Primary screen of dehalogenase activity in cell free extracts of TDTM-003. The test is classed as biochemical. The protocol: Following overnight growth, 50 μl of 1-chlorobutane was added to induce the dehalogenase. After 24 hours induction, cells were harvested by centrifugation, resuspended in cold 10mM Tris sulfate/1 mM disodium EDTA, pH=7.5, and disrupted by sonication. Cell debris was removed by centrifugation at 10,000 rpm for 30 minutes, cell free extracts dialyzed overnight against the same buffer, and assayed without dilution for dehalogenase activity.
Free chloride or bromide was assayed qualitatively using a chloride electrode (Orion), or quantitatively using the colorimetric method (430 nm) described by J. G. Bergmann, et al., Anal. Chem., 29:241-243 (1957).
as §1
Preliminary studies were performed on cell free extracts of TDTM-003 to evaluate the enzyme substrate selectivity, and the results of this study are shown in Table 2.

Test [3] relates to TDTM-003. Briefly: Utilization of carbon containing compounds for growth in liquid culture, TDTM-003. The test is classed as cell-based, Rhodococcus species. The note with it: liquid culture.
Test [4] concerns TDTM-003-60-2-11. Briefly: Utilization of carbon containing compounds for growth in liquid culture, TDTM-003-60-2-11.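 Note: minus means no visible growth and plus means good growth.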 The format is cell-based, Rhodococcus species ATCC 55388. An excerpt:
A representative double mutant designated TDTM-003-60-2-11, made by the above example was deposited at the American Type Culture Collection on Jan. 28, 1993 and given the ATCC designation 55388.

Sequence of partially purified TDTM-003 dehalogenase (P59336 whole entry): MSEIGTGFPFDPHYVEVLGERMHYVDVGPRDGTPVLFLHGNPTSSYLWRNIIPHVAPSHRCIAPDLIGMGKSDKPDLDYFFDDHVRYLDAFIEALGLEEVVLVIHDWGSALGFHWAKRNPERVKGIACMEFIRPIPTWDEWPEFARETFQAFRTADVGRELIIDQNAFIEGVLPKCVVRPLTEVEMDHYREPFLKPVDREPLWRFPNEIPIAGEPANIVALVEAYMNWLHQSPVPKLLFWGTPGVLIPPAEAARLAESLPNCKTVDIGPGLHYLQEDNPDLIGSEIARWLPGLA

`CCC(Br)CBr` (stereo not shown) [1,2-dibromobutane]: in test [1], the “Relative Rate of Halogen Release, 1-Chlorobutane = 100” value (shortened to “Relative Rate of Halogen Release”) was found to be 756.000.
On the same count and under the same terms, under `BrCCBr` [1,2-dibromoethane] stands 1318.000.
For the molecule `CC(Br)CBr` (stereo not shown) [1,2-dibromopropane], the “Relative Rate of Halogen Release” value in test [1] stood at 900.000.
As for `CC(C)(Cl)CCl` [1,2-dichloro-2-methylpropane], the “Relative Rate of Halogen Release” value in test [1] stood at 0.000. Besides, the “Relative Rate of Chloride Release, 1-chlorobutane = 100” value (shortened to “Relative Rate of Chloride Release”) in test [2] is listed as 300.
In the same order, the values of `ClCCCl` [1,2-dichloroethane] are 4.400 and 2.8.
`CC(Br)CCBr` (stereo not shown) [1,3-dibromobutane]: in test [1], the “Relative Rate of Halogen Release” value is listed as 155.000.
For the molecule `BrCCCBr` [1,3-dibromopropane], in test [1], the “Relative Rate of Halogen Release” value is 771.000.
Regarding `OC(CCl)CCl` [1,3-dichloro-2-propane], the “Utilization of carbon source for growth, TDTM-003” value in test [3] was “+/-”. Also, the “Utilization of carbon source for growth, TDTM-003-60-2-11” value (shortened to “Utilization … TDTM-003-60-2-11”) in test [4] is “-”.
As to `CC(Cl)CCCl` (stereo not shown) [1,3-dichlorobutane], the “Relative Rate of Halogen Release” value in test [1] stood at 81.000. The “Relative Rate of Chloride Release” value in test [2] was found to be 63.
On the same counts, the results for `ClCCCCl` [1,3-dichloropropane] are 253.000 and 203.
For the molecule `BrCCCCBr` [1,4-dibromobutane], the “Relative Rate of Halogen Release” value in test [1] turned out to be 294.000.
`ClCCCCCl` [1,4-dichlorobutane]: in test [1], the “Relative Rate of Halogen Release” value stood at 261.000. Also, in test [2], the “Relative Rate of Chloride Release” value is reported as 178.
`ClCCCCCCl` [1,5-dichloropentane]: the “Relative Rate of Halogen Release” value in test [1] is listed as 173.000. In addition, the “Relative Rate of Chloride Release” value in test [2] is listed as 112.
In the case of `BrCCCCCCBr` [1,6-dibromohexane], the “Relative Rate of Halogen Release” value in test [1] is reported as 244.000.
In the case of `ClCCCCCCCl` [1,6-dichlorohexane], the “Relative Rate of Halogen Release” value in test [1] amounted to 252.000. Besides, the “Relative Rate of Chloride Release” value in test [2] is recorded as 169.
As for `BrCCCCCCCCBr` [1,8-dibromooctane], in test [1], the “Relative Rate of Halogen Release” value was 173.000.
In the case of `ClCCCCCCCCCCCl` [1,10-dichlorodecane], the “Relative Rate of Halogen Release” value in test [1] was determined as 52.000. The “Relative Rate of Chloride Release” value in test [2] is listed as 124.
As for `ClCCBr` [1-bromo-2-chloroethane], the “Relative Rate of Halogen Release” value in test [1] came out at 751.000.
`CCCCBr` [1-bromobutane]: in test [1], the “Relative Rate of Halogen Release” value is given as 265.000. In addition, the “Relative Rate of Chloride Release” value in test [2] was determined as 362.
On to `CCCCCCCCCCBr` [1-bromodecane], for which the “Relative Rate of Halogen Release” value in test [1] came to 98.000.
On the same count and under the same terms, under `CCCCCCBr` [1-bromohexane] stands 162.000.
Still for that read-out and setting: under `CCCCCCCCBr` [1-bromooctane] stands 414.000; under `CCCCCBr` [1-bromopentane], 203.000; under `CCCBr` [1-bromopropane], 459.000.
With `CC(C)CCl` [1-chloro-2-methylpropane], the “Relative Rate of Chloride Release” value in test [2] is given as 117.
As to `CCCCCl` [1-chlorobutane], in test [1], the “Relative Rate of Halogen Release” value was 100.000. For the same molecule, the “Relative Rate of Chloride Release” value in test [2] is reported as 100.
On to `CCCCCCCCCCCl` [1-chlorodecane], for which, in test [1], the “Relative Rate of Halogen Release” value amounted to 28.000.
Still for that read-out and setting: the result for `CCCCCCCCl` [1-chloroheptane] reads 130.000.
As to `CCCCCCCl` [1-chlorohexane], the “Relative Rate of Halogen Release” value in test [1] is reported as 119.000. Besides, the “Relative Rate of Chloride Release” value in test [2] amounted to 136.
In the same order, the values of `CCCCCCCCCl` [1-chlorooctane] are 58.000 and 159.
Consider `CCCCCCl` [1-chloropentane], for which, in test [1], the “Relative Rate of Halogen Release” value is 81.000. For the same molecule, the “Relative Rate of Chloride Release” value in test [2] turned out to be 109.
For `CCCCl` [1-chloropropane], the “Relative Rate of Halogen Release” value in test [1] stood at 33.000. For the same molecule, the “Relative Rate of Chloride Release” value in test [2] is listed as 57.
On to `CC(C)(Cl)Cl` [2,2-dichloropropane], for which the “Relative Rate of Halogen Release” value in test [1] worked out at 23.000.
With `CC(Br)C(C)Br` (stereo not shown) [2,3-dibromobutane], the “Relative Rate of Halogen Release” value in test [1] worked out at 846.000.
Consider `OCC(Cl)CCl` (stereo not shown) [2,3-dichloro-1-propane], for which the “Utilization of carbon source for growth, TDTM-003” value in test [3] is listed as “+ /-”. For the same molecule, in test [4], the “Utilization … TDTM-003-60-2-11” value is “-”.
`CC(Cl)C(C)Cl` (stereo not shown) [2,3-dichlorobutane]: the “Relative Rate of Halogen Release” value in test [1] is 19.000. The “Relative Rate of Chloride Release” value in test [2] was 73.
For `CC(C)Br` [2-Bromopropane], the “Relative Rate of Halogen Release” value in test [1] came to 55.000.
Regarding `CCC(C)Br` (stereo not shown) [2-bromobutane], in test [1], the “Relative Rate of Halogen Release” value is on record as 123.000.
Take `CC(C)(C)Cl` [2-chloro-2-methylpropane]: in test [2], the “Relative Rate of Chloride Release” value is listed as 2917.
In the case of `CCC(C)Cl` (stereo not shown) [2-chlorobutane], the “Relative Rate of Halogen Release” value in test [1] was 20.000. In addition, the “Relative Rate of Chloride Release” value in test [2] amounted to 65.
For the molecule `CCC(N)C(=O)O` (stereo not shown) [Aminobutyrate], the “Utilization of carbon source for growth, TDTM-003” value in test [3] was “+”. Also, in test [4], the “Utilization … TDTM-003-60-2-11” value is “+”.
As for `O=C(O)[C@H](O)[C@@H](O)[C@H](O)[C@H](O)CO` [Gluconate], in test [3], the “Utilization of carbon source for growth, TDTM-003” value is on record as “++”. For the same molecule, the “Utilization … TDTM-003-60-2-11” value in test [4] is listed as “++”.
For `O=C[C@H](O)[C@@H](O)[C@H](O)[C@H](O)CO` [Glucose], the “Utilization … TDTM-003-60-2-11” value in test [4] is “+ +”.
As for `ClC1CCCCC1` [chlorocyclohexane], in test [1], the “Relative Rate of Halogen Release” value is reported as 7.500.
For the molecule `O=C(O)c1cccc(O)c1` [m-OH Benz], the “Utilization of carbon source for growth, TDTM-003” value in test [3] was “-”. Also, the “Utilization … TDTM-003-60-2-11” value in test [4] is “-”.
As to `O=C(O)c1ccc(O)cc1` [p-OH-Benz], the “Utilization of carbon source for growth, TDTM-003” value in test [3] is listed as “-”. Further, the “Utilization … TDTM-003-60-2-11” value in test [4] is listed as “-”.
Take Dextrin: the “Utilization of carbon source for growth, TDTM-003” value in test [3] is reported as “-”. For the same molecule, the “Utilization … TDTM-003-60-2-11” value in test [4] is given as “-”.
As for Glycogen, in test [3], the “Utilization of carbon source for growth, TDTM-003” value is given as “+”. Further, in test [4], the “Utilization … TDTM-003-60-2-11” value is “+”.
For Inulin, in test [3], the “Utilization of carbon source for growth, TDTM-003” value is given as “-”. Also, the “Utilization … TDTM-003-60-2-11” value in test [4] is given as “-”.
Phenylacetate: in test [3], the “Utilization of carbon source for growth, TDTM-003” value is given as “+”. In addition, the “Utilization … TDTM-003-60-2-11” value in test [4] is given as “-”.
